# US20050004029A1, “Methods and compositions for treating vascular leak using hepatocyte growth factor” (priority 2001, published 2005)
# Assays:
# [1] = tested on: Human pulmonary artery endothelial cells; assay: Transendothelial electrical resistance (TER) of human pulmonary artery endothelial cell monolayers; assay type: cell-based; details: then HGF 20 ng/ml; for effect on HGF-induced increases in TER, in words: pretreatment LY294002 25 μM, UO126 10 μM, SB203580 20 μM, Ro-31-2880 10 μM
# Experimental: (§1) Bovine pulmonary artery endothelial cells were purchased from the American Type Culture Collection (ATCC®, Rockville, Md.) and utilized at passage 19-24. Cells were maintained in Medium 199 (Life Technologies, Rockville, Md.) supplemented with 20% (v/v) colostrum-free bovine serum (CFBS) (Irvine Scientific, Santa Ana, Calif.), 15 μg/ml endothelial cell growth supplement (Upstate Biotechnology, Lake Placid, N.Y.), 1% antibiotic and antimycotic, and 0.1 mM non-essential amino acids (Life Technologies). Human pulmonary artery endothelial cells were purchased from Clonetics (Walkersville, Md.), cultured in EBM-2 complete medium (Clonetics) and utilized at passage 5-10. Human alveolar epithelial cells (A549) were purchased from ATCC® and cultured in the same medium as the bovine endothelial cells, except that the endothelial cell growth supplement was omitted. All cells were maintained at 37° C. in a humidified atmosphere of 5% CO2 and 95% air. Both endothelial cell types grew to contact-inhibited monolayers with the typical cobblestone morphology (Garcia, J. G. N. et al. (1995) J. Cell. Physiol. 163:510-522; Liu, F. et al. (2001) Am. J. Respir. Cell. Mol. Biol. 24:711-719).
# Electrical resistance of EC monolayers was measured using electrical cell impedance sensor system (Applied Biophysics Inc., Troy, N.Y.) as described in Garcia, J. G. N. et al. (2000) J. Appl. Physiol. 89:2333-2343. Cells grown on gold microelectrodes (10^−3 cm^2) in polycarbonate wells act as insulating particles, and the resistance across the monolayers (transendothelial electrical resistance, or TER) is measured in real time. As cells adhere on the microelectrode and intercellular cell contacts are formed or in response to agents which increase junctional integrity, the TER increases (Garcia, J. G. N. et al. (2001) J. Clin. Invest. 108:689-711). In contrast, cell retraction, rounding, or loss of adhesion is reflected by decreases in TER (Garcia, J. G. N. et al. (2000) J. Appl. Physiol. 89:2333-2343). These measurements provide a highly sensitive biophysical assay that indicates the state of cell shape, focal adhesion, and endothelial barrier function (Giaever, I. and Keese, C. R. (1993) Nature 366:591-592; Tiruppathi, C. et al. (1992) Proc. Natl. Acad. Sci. USA 89:7919-7923). All electrical resistance data are presented as normalized values. Briefly, current was applied across the electrodes by a 4000 Hz AC voltage source with an amplitude of 1 V in series with a 1 MΩ resistance to approximate a constant current source (−1 μA). The small gold electrode and the larger counter electrode (1 cm^2) were connected to a phase-sensitive lock-in amplifier (5301A; EG&G Instruments Corp, Princeton, N.J.) with a built in differential preamplifier (5316A; EG&G Instruments Corp.). The in-phase and out-of-phase voltages between the electrodes were monitored in real time with the lock-in amplifier and converted to scalar measurements of transendothelial impedance, of which resistance was the primary focus. Transendothelial electrical resistance was monitored for 30 min to establish a baseline resistance (Ro) which, for human lung endothelium, was typically between 8 to 12×10^3 Ω (wells with R0<7×10^3 Ω or R0 >15×10^3 Ω were rejected). For some experiments, total TER was vectorially resolved into components reflecting resistance to current flow beneath the cell layer (α) and resistance to current flow between adjacent cells (Rb) as described in Garcia et al. (2000) supra utilizing the method of Giaiver and Keese which models the endothelial monolayer mathematically (Giaever, I. and Keese, C. R. (1993) Nature 366:591-592). Thus, changes in α reflect alterations in the net state of cell-matrix adhesion, whereas changes in Rb reflect alterations in the integrity of cell-cell adhesion. TER values from each microelectrode were pooled at discrete time points and plotted versus time as the mean±standard error of the mean (Garcia et al. (2000) supra). […]
# [2] = tested on: human endothelial monolayers; assay: F-actin immunofluorescent microscopy (cortical actin ring); assay type: cell-based; details: LY294002 25 μM, 1 hr or SB203580 20 μM, 30 min; HGF 20 ng/ml
# Experimental: Endothelial cell monolayers grown on gelatinized cover slips were rinsed with M199 and incubated with agonists in the same medium in a 37° C. incubator (5% CO2). Monolayers were then rinsed with PBS (3×2 min), fixed in 4% paraformaldehyde for 10 min, again rinsed with PBS (3×2 min), and permeabilized with 0.25% Triton X-100 for 5 min. Cells were then washed briefly with PBS (3×2 min), blocked with PBS containing 2% BSA for 30 min and incubated with 1 Unit/mL of Texas Red-X phalloidin (Molecular Probes, Eugene, Oreg.), β-catenin antibody (Transduction Laboratories, Lexington, Ky.), glycogen synthase kinase-3 β (GSK-3β) (Santa Cruz Biotechnology, Inc., Santa Cruz, Calif.), or mono-phosphorylated MLC antisera (see Garcia, J. G. N. et al. (2001) J. Clin. Invest. 108:689-711) for 1 hr. After washing with PBS (3×2 min), cover slips were mounted on slides using SlowFade mounting medium (Molecular Probes). Cells were analyzed using a 60× oil objective on a Nikon Eclipse TE 300 microscope. Images were captured by Sony Digital Photo camera DKC 5000. […]
# The effect of HGF on the spatial localization of polymerized actin in human endothelial monolayers was investigated by immunofluorescent microscopy. […] F-actin staining was assessed with Texas red phalloidin and myosin light chain staining evaluated with anti-monophosphorylated myosin light chain polyclonal antibody.
# [3] = tested on: Bovine Pulmonary Artery Endothelium; assay: Transendothelial electrical resistance (TER) across bovine pulmonary artery endothelium; assay type: cell-based; details: VEGF 100 ng/ml, Sph 1-P 1 μM, HGF 20 ng/ml; for TER response in words: thrombin, 10-60 min; for changes in TER 30 min / changes in TER 60 min / changes in TER 10 min: vs vehicle control, ±SEM, thrombin 100 μM; for changes in TER 10 min: (+) increased, (−) decreased
# Experimental: as §1, with “air.” for “air. Both endothelial cell types grew to contact-inhibited monolayers with the typical cobblestone morphology (Garcia, J. G. N. et al. (1995) J. Cell. Physiol. 163:510-522; Liu, F. et al. (2001) Am. J. Respir. Cell. Mol. Biol. 24:711-719).”
# Electrical resistance of EC monolayers was measured using electrical cell impedance sensor system (Applied Biophysics Inc., Troy, N.Y.) as described in Garcia, J. G. N. et al. (2000) J. Appl. Physiol. 89:2333-2343. Cells grown on gold microelectrodes (10^−3 cm^2) in polycarbonate wells act as insulating particles, and the resistance across the monolayers (transendothelial electrical resistance, or TER) is measured in real time. As cells adhere on the microelectrode and intercellular cell contacts are formed or in response to agents which increase junctional integrity, the TER increases (Garcia, J. G. N. et al. (2001) J. Clin. Invest. 108:689-711). In contrast, cell retraction, rounding, or loss of adhesion is reflected by decreases in TER (Garcia, J. G. N. et al. (2000) J. Appl. Physiol. 89:2333-2343). These measurements provide a highly sensitive biophysical assay that indicates the state of cell shape, focal adhesion, and endothelial barrier function (Giaever, I. and Keese, C. R. (1993) Nature 366:591-592; Tiruppathi, C. et al. (1992) Proc. Natl. Acad. Sci. USA 89:7919-7923). All electrical resistance data are presented as normalized values. Briefly, current was applied across the electrodes by a 4000 Hz AC voltage source with an amplitude of 1 V in series with a 1 MΩ resistance to approximate a constant current source (−1 μA). The small gold electrode and the larger counter electrode (1 cm^2) were connected to a phase-sensitive lock-in amplifier (5301A; EG&G Instruments Corp, Princeton, N.J.) with a built in differential preamplifier (5316A; EG&G Instruments Corp.). The in-phase and out-of-phase voltages between the electrodes were monitored in real time with the lock-in amplifier and converted to scalar measurements of transendothelial impedance, of which resistance was the primary focus. […] For some experiments, total TER was vectorially resolved into components reflecting resistance to current flow beneath the cell layer (α) and resistance to current flow between adjacent cells (Rb) as described in Garcia et al. (2000) supra utilizing the method of Giaiver and Keese which models the endothelial monolayer mathematically (Giaever, I. and Keese, C. R. (1993) Nature 366:591-592). Thus, changes in α reflect alterations in the net state of cell-matrix adhesion, whereas changes in Rb reflect alterations in the integrity of cell-cell adhesion. TER values from each microelectrode were pooled at discrete time points and plotted versus time as the mean±standard error of the mean (Garcia et al. (2000) supra).
# p42/44 ERK = p42/44 ERK activation by phospho-specific immunoblotting; assay type: cell-based, human; details: UO126 10 μM, 30 min; HGF 20 ng/ml, 15 min
# Experimental: Endothelial cell monolayers grown to confluence in 12-well plates and challenged with HGF were lysed with 100 μl of 2×SDS sample buffer, and cell lysates were transferred into microcentrifuge tubes and boiled for 5 min. After a brief spin, proteins from 10 μl cell lysates were separated on 12% SDS-PAGE and transferred to nitrocellulose (Schleicher & Schuell, Keene, N.H.) (30V, 18 h). After blocking with PBST (PBS with 0.1% Tween 20) containing 5% non-fat milk for 1 hr, nitrocellulose blots were reacted with primary antibodies diluted in PBST containing 5% BSA for 1 hr, washed with PBST (3×10 min), incubated with peroxidase-conjugated secondary antibodies (goat anti-rabbit IgG, 1:10,000 dilution, Sigma; or goat anti-mouse IgG, 1:10,000 dilution, Bio-Rad Labs, Richmond, Calif.) diluted in PBST with 5% non-fat milk for 1 hr and again washed with PBST (3×10 min). Finally, immunoreactive proteins were detected using ECL. The relative intensities of the protein bands were quantified by scanning densitometry.
# The MAP family of kinases (ERK1/2 and p38) are actively involved in agonist-induced endothelial cell actin reorganization and barrier regulation (Verin, A. D. et al. (2000) Am. J. Physiol: Lung Cell Molec. Phys. 279:L360-L370, 2000; Garcia, J. G. N. et al. (2001) J. Clin. Invest. 108:689-711) and have been noted to participate in HGF-mediated cell activation (Liang, C. C. and Chen, H. C. (2001) J. Biol. Chem. 276:21146-21152). These reports were confirmed in human endothelial cell monolayers incubated with HGF (20 ng/ml, for 1, 2, 5, 10, 15, 20, 30, 60, or 120 min) where activation of p42/44 ERK and p38 MAPK by HGF was detected by immunoblotting with antibodies that only recognize the phosphorylated (activated) forms of ERK or p38 MAPK. The activation of ERKs was evident at 5 min, maximal after 10-15 min with a gradual decline thereafter, but remaining sustained above basal levels for more than 2 hrs. […] The onset of HGF-mediated activation of p38 MAPK was similar to ERK, with plateau at 10-15 min. However, the duration of this response was much more truncated than ERK activation, beginning to decline by 20 min and returning to basal value by 1 hr.
Compound,"effect on HGF-induced increases in TER, in words [1]",TER response in words [3],changes in TER 30 min [3],changes in TER 60 min [3] [%],changes in TER 10 min [3],also measured
"C[S+]([O-])c1ccc(-c2nc(-c3ccncc3)c(-c3ccc(F)cc3)[nH]2)cc1 (stereo not shown) [SB203580, reference compound]",significantly blocked,,,,,effect on HGF-elicited cortical actin ring formation / actin remodeling [2]: significantly attenuated
VEGF,,"early increase in TER, which then falls to produce mild barrier dysfunction",0% ± 3%,−20 ± 4,+30 ± 4%,
"N#CC(=C(/N)Sc1ccccc1N)/C(C#N)=C(/N)Sc1ccccc1N [UO126, reference compound]",significantly blocked,,,,,effect on HGF-stimulated ERK activity (p42/44 ERK): completely abolished
Thrombin,,rapidly decreases TER values which begin to abate after 30 min,−50 ± 4%,−14 ± 4,+30 ± 3%,
"O=c1cc(N2CCOCC2)oc2c(-c3ccccc3)cccc12 [LY294002, reference compound]",,,,,,reduction of HGF-induced increase in TER ([1]; inhibitor pretreatment (LY294002 25 μM; Ro-31-2880 10 μM)): > 50%
